Test results from patent publication US9833497B2, “Human originated EGF domain proteins and use of the same” (CHENGDU SOURCEBIO LIMITED-LIABILITY COMPANY, priority 2013, dated 2017).

Experiments:
Format in all cases: cell-based
Moraxella catarrhalis = experiment: MIC against Gram-negative bacteria: Moraxella catarrhalis; details: for MIC (μg/mL) M. catarrhalis / MIC against M. catarrhalis: 5×10^5 CFU/mL; for MIC (μg/mL) M. catarrhalis / MIC: M. catarrhalis; for MIC against M. catarrhalis: Moraxella catarrhalis
Procedure, shortened: (§1)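 Antibacterial activity of purified human EGF domain proteins: two-fold concentration series, triplicate wells, LB broth, 5×10^5 CFU/mL bacteria, 37° C shaking incubation. The lowest concentration without growth defines the MIC.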

Aeromonas hydrophila = experiment: MIC against Gram-negative bacteria: Aeromonas hydrophila; details: for MIC (μg/mL) A. hydrophila / MIC against A. hydrophila: 5×10^5 CFU/mL; for MIC (μg/mL) A. hydrophila / MIC: A. hydrophila; for MIC against A. hydrophila: Aeromonas hydrophila
Procedure, shortened: as §1

Citrobacter diversus = experiment: MIC against Gram-negative bacteria: Citrobacter diversus; details: for MIC (μg/mL) C. diversus / MIC against C. diversus: 5×10^5 CFU/mL; for MIC (μg/mL) C. diversus / MIC: C. diversus; for MIC against C. diversus: Citrobacter diversus
Procedure, shortened: as §1

Proteus vulgaris = experiment: MIC against Gram-negative bacteria: Proteus vulgaris; details: for MIC (μg/mL) P. vulgaris / MIC against P. vulgaris: 5×10^5 CFU/mL; for MIC (μg/mL) P. vulgaris / MIC: P. vulgaris; for MIC against P. vulgaris: Proteus vulgaris
Procedure, shortened: as §1

Klebsiella pneumonia = experiment: MIC against Gram-negative bacteria: Klebsiella pneumonia; details: for MIC (μg/mL) K. pneumonia / MIC against K. pneumonia: 5×10^5 CFU/mL; for MIC (μg/mL) K. pneumonia / MIC: K. pneumonia; for MIC against K. pneumonia: Klebsiella pneumonia
Procedure, shortened: as §1

E. coli BL21 = experiment: MIC against Gram-negative bacteria: E. coli BL21; details: E. coli BL21; for MIC (μg/mL) E. coli BL21 / MIC against E. coli BL21: 5×10^5 CFU/mL
Procedure, shortened: as §1

Pseudomonas aeruginosa = experiment: MIC against Gram-negative bacteria: Pseudomonas aeruginosa; details: for MIC (μg/mL) P. aeruginosa / MIC against P. aeruginosa: 5×10^5 CFU/mL; for MIC (μg/mL) P. aeruginosa / MIC: P. aeruginosa; for MIC against P. aeruginosa: Pseudomonas aeruginosa
Procedure, shortened: as §1

Proteus mirabilis = experiment: MIC against Gram-negative bacteria: Proteus mirabilis; details: for MIC (μg/mL) P. mirabilis / MIC against P. mirabilis: 5×10^5 CFU/mL; for MIC (μg/mL) P. mirabilis / MIC: P. mirabilis; for MIC against P. mirabilis: Proteus mirabilis
Procedure, shortened: as §1

E. coli DH5α = experiment: Antibacterial activity: MIC and growth curve against E. coli DH5α in 96-well plate; details: minimal inhibitory concentration against E. coli DH5α; 96-well plate, 5×10^5 CFU/mL, 37° C., judged after 8 h
Procedure, shortened: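 MIC taken as lowest protein level with no bacterial growth, tracked by A600 every 30 min during 37 °C, 175 rpm culture. Two-fold protein series 50-12.5 μg/mL final, triplicate wells, against 5×10^5 CFU/mL of LB-washed mid-log cells.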

Enterobacter cloacae = experiment: MIC against Gram-negative bacteria: Enterobacter cloacae; details: for MIC (μg/mL) E. cloacae / MIC against E. cloacae: 5×10^5 CFU/mL; for MIC (μg/mL) E. cloacae / MIC: E. cloacae; for MIC against E. cloacae: Enterobacter cloacae
Procedure, shortened: as §1

Serratia marcescens = experiment: MIC against Gram-negative bacteria: Serratia marcescens; details: for MIC (μg/mL) S. marcescens / MIC against S. marcescens: 5×10^5 CFU/mL; for MIC (μg/mL) S. marcescens / MIC: S. marcescens; for MIC against S. marcescens: Serratia marcescens
Procedure, shortened: as §1

Substance: PRT189 (SIDACASSPCFNRATCYTDLSTDTFVCNCPYGFVGSRCE; listed as Homo sapiens)
- MIC (μg/mL) M. catarrhalis (Moraxella catarrhalis; 10 h cultivation at 37° C.): 12.5 µg/mL
- MIC (μg/mL) A. hydrophila (Aeromonas hydrophila; 10 h cultivation at 37° C.): 50 µg/mL
- MIC (μg/mL) C. diversus (Citrobacter diversus; 10 h cultivation at 37° C.): 25 µg/mL
- MIC (μg/mL) P. vulgaris (Proteus vulgaris; 10 h cultivation at 37° C.): 50 µg/mL
- MIC (μg/mL) K. pneumonia (Klebsiella pneumonia; 10 h cultivation at 37° C.): 12.5 µg/mL
- MIC (μg/mL) E. coli BL21 (E. coli BL21; 10 h cultivation at 37° C.): 12.5 µg/mL
- MIC (μg/mL) P. aeruginosa (Pseudomonas aeruginosa; 10 h cultivation at 37° C.): 25 µg/mL
- MIC (μg/mL) P. mirabilis (Proteus mirabilis; 10 h cultivation at 37° C.): 25 µg/mL
- MIC (E. coli DH5α): 25 µg/mL
- MIC (μg/mL) E. cloacae (Enterobacter cloacae; 10 h cultivation at 37° C.): 25 µg/mL
- MIC (μg/mL) S. marcescens (Serratia marcescens; 10 h cultivation at 37° C.): 25 µg/mL

Substance: PRT875 (GGSPCEAGEEGEGGVCLNGGVCSVVDDQAVCDCSRTGFRGKDCS; listed as Homo sapiens)
- MIC (μg/mL) M. catarrhalis (Moraxella catarrhalis; 10 h cultivation at 37° C.): 25 µg/mL
- MIC (μg/mL) A. hydrophila (Aeromonas hydrophila; 10 h cultivation at 37° C.): 50 µg/mL
- MIC (μg/mL) C. diversus (Citrobacter diversus; 10 h cultivation at 37° C.): 12.5 µg/mL
- MIC (μg/mL) P. vulgaris (Proteus vulgaris; 10 h cultivation at 37° C.): 12.5 µg/mL
- MIC (μg/mL) K. pneumonia (Klebsiella pneumonia; 10 h cultivation at 37° C.): 50 µg/mL
- MIC (μg/mL) E. coli BL21 (E. coli BL21; 10 h cultivation at 37° C.): 12.5 µg/mL
- MIC (μg/mL) P. aeruginosa (Pseudomonas aeruginosa; 10 h cultivation at 37° C.): 25 µg/mL
- MIC (μg/mL) P. mirabilis (Proteus mirabilis; 10 h cultivation at 37° C.): 50 µg/mL
- MIC (E. coli DH5α): 25 µg/mL
- MIC (μg/mL) E. cloacae (Enterobacter cloacae; 10 h cultivation at 37° C.): 12.5 µg/mL
- MIC (μg/mL) S. marcescens (Serratia marcescens; 10 h cultivation at 37° C.): 12.5 µg/mL

Substance: PRT941 (EINECSSHPCLNEGTCVDGLGTYRCSCPLGYTGKNCQ; listed as Homo sapiens)
- MIC (Moraxella catarrhalis; 10 h cultivation at 37° C.): 50 µg/mL
- MIC (Aeromonas hydrophila; 10 h cultivation at 37° C.): 50 µg/mL
- MIC (Citrobacter diversus; 10 h cultivation at 37° C.): 12.5 µg/mL
- MIC (Proteus vulgaris; 10 h cultivation at 37° C.): 50 µg/mL
- MIC (Klebsiella pneumonia; 10 h cultivation at 37° C.): 50 µg/mL
- MIC (E. coli BL21; 10 h cultivation at 37° C.): 50 µg/mL
- MIC (Pseudomonas aeruginosa; 10 h cultivation at 37° C.): 12.5 µg/mL
- MIC (Proteus mirabilis; 10 h cultivation at 37° C.): 12.5 µg/mL
- MIC (E. coli DH5α): 25 µg/mL
- MIC (Enterobacter cloacae; 10 h cultivation at 37° C.): 12.5 µg/mL
- MIC (Serratia marcescens; 10 h cultivation at 37° C.): 12.5 µg/mL

Substance: PRT1361 (SELICPNDCFDRGRCINGTCYCEEGFTGEDCG; listed as Homo sapiens)
- MIC against M. catarrhalis (Moraxella catarrhalis; 10 h cultivation at 37° C.): 25 µg/mL
- MIC against A. hydrophila (Aeromonas hydrophila; 10 h cultivation at 37° C.): 25 µg/mL
- MIC against C. diversus (Citrobacter diversus; 10 h cultivation at 37° C.): 50 µg/mL
- MIC against P. vulgaris (Proteus vulgaris; 10 h cultivation at 37° C.): 25 µg/mL
- MIC against K. pneumonia (Klebsiella pneumonia; 10 h cultivation at 37° C.): 50 µg/mL
- MIC against E. coli BL21 (E. coli BL21; 10 h cultivation at 37° C.): 12.5 µg/mL
- MIC against P. aeruginosa (Pseudomonas aeruginosa; 10 h cultivation at 37° C.): 25 µg/mL
- MIC against P. mirabilis (Proteus mirabilis; 10 h cultivation at 37° C.): 12.5 µg/mL
- MIC (E. coli DH5α): 25 µg/mL
- MIC against E. cloacae (Enterobacter cloacae; 10 h cultivation at 37° C.): 12.5 µg/mL
- MIC against S. marcescens (Serratia marcescens; 10 h cultivation at 37° C.): 50 µg/mL

Substance: PRT967 (ARDACESQPCRAGGTCSSDGMGFHCTCPPGVQGRQCE; listed as Homo sapiens)
- MIC (Moraxella catarrhalis; 10 h cultivation at 37° C.): 25 µg/mL
- MIC (Aeromonas hydrophila; 10 h cultivation at 37° C.): 25 µg/mL
- MIC (Citrobacter diversus; 10 h cultivation at 37° C.): 12.5 µg/mL
- MIC (Proteus vulgaris; 10 h cultivation at 37° C.): 25 µg/mL
- MIC (Klebsiella pneumonia; 10 h cultivation at 37° C.): 25 µg/mL
- MIC (E. coli BL21; 10 h cultivation at 37° C.): 12.5 µg/mL
- MIC (Pseudomonas aeruginosa; 10 h cultivation at 37° C.): 12.5 µg/mL
- MIC (Proteus mirabilis; 10 h cultivation at 37° C.): 12.5 µg/mL
- MIC (E. coli DH5α): 50 µg/mL
- MIC (Enterobacter cloacae; 10 h cultivation at 37° C.): 12.5 µg/mL
- MIC (Serratia marcescens; 10 h cultivation at 37° C.): 12.5 µg/mL

Substance: PRT1231 (IGPSCLKFCSGRGQCTRHGCKCDPGFSGPACE; listed as Homo sapiens)
- MIC against M. catarrhalis (Moraxella catarrhalis; 96-well plate, 37° C., 10 h): 12.5 µg/mL
- MIC against A. hydrophila (Aeromonas hydrophila; 96-well plate, 37° C., 10 h): 100 µg/mL
- MIC against C. diversus (Citrobacter diversus; 96-well plate, 37° C., 10 h): 50 µg/mL
- MIC against P. vulgaris (Proteus vulgaris; 96-well plate, 37° C., 10 h): 12.5 µg/mL
- MIC against K. pneumonia (Klebsiella pneumonia; 96-well plate, 37° C., 10 h): 12.5 µg/mL
- MIC against E. coli BL21 (E. coli BL21; 96-well plate, 37° C., 10 h): 25 µg/mL
- MIC against P. aeruginosa (Pseudomonas aeruginosa; 96-well plate, 37° C., 10 h): 50 µg/mL
- MIC against P. mirabilis (Proteus mirabilis; 96-well plate, 37° C., 10 h): 50 µg/mL
- MIC (E. coli DH5α): 12.5 µg/mL
- MIC against E. cloacae (Enterobacter cloacae; 96-well plate, 37° C., 10 h): 50 µg/mL
- MIC against S. marcescens (Serratia marcescens; 96-well plate, 37° C., 10 h): 25 µg/mL

Substance: PRT899 (NINECASNPCLNQGTCIDDVAGYKCNCLLPYTGATCE; listed as Homo sapiens)
- MIC (Moraxella catarrhalis; 10 h cultivation at 37° C.): 12.5 µg/mL
- MIC (Aeromonas hydrophila; 10 h cultivation at 37° C.): 12.5 µg/mL
- MIC (Citrobacter diversus; 10 h cultivation at 37° C.): 50 µg/mL
- MIC (Proteus vulgaris; 10 h cultivation at 37° C.): 12.5 µg/mL
- MIC (Klebsiella pneumonia; 10 h cultivation at 37° C.): 12.5 µg/mL
- MIC (E. coli BL21; 10 h cultivation at 37° C.): 12.5 µg/mL
- MIC (Pseudomonas aeruginosa; 10 h cultivation at 37° C.): 12.5 µg/mL
- MIC (Proteus mirabilis; 10 h cultivation at 37° C.): 50 µg/mL
- MIC (E. coli DH5α): 12.5 µg/mL
- MIC (Enterobacter cloacae; 10 h cultivation at 37° C.): 50 µg/mL
- MIC (Serratia marcescens; 10 h cultivation at 37° C.): 12.5 µg/mL
